Data taken from patent publication US4751302A, “Indazole derivatives” (priority 1982, dated 1988).

Assays:
[1] = test system: Carrageenin edema in rat's paw; experiment: Carrageenin Edema Test in Rat's Paw (anti-inflammatory activity, Table 1); format: in vivo; conditions: 100 mg/kg oral, hydrochloride, rat
Experimental: An anti-inflammatory activity was measured by orally administering 100 mg/kg of a hydrochloride of the indazole derivative of this invention as set forth in Table 1 to an animal in accordance with the standard method of Carrageenin Edema Test in Rat's Paw described in C. A. Winter et al., Proc. Soc. Exp. Biol. Med., 111, 544 (1962).

in vivo = conditions: mouse, ip, intraperitoneal, hydrochloride, male ddy mice

## CCN(CC)CCCNc1n[nH]c2c(Cl)cccc12 [(48), 3-(3-Diethylaminopropylamino)-7-chloroindazole]
[1]
  inhibition in vivo at 100 mg/kg: 57%
In vivo
  LD50: 291 mg/kg

## CCN(CC)CCCNc1n[nH]c2ccc(N)cc12 [(49), 3-(3-Diethylaminopropylamino)-5-aminoindazole]
[1]
  inhibition in vivo at 100 mg/kg: 55%
In vivo
  LD50: 244 mg/kg

## CCN(CC)CCCNc1n[nH]c2ccc(OC)cc12 [(50), 3-(3-Diethylaminopropylamino)-5-methoxyindazole]
[1]
  inhibition in vivo at 100 mg/kg: 52%
In vivo
  LD50: 200 mg/kg

## CCN(CC)CCCNc1n[nH]c2ccc(C)cc12 [(51), 3-(3-Diethylaminopropylamino)-5-methylindazole]
[1]
  inhibition in vivo at 100 mg/kg: 60%
In vivo
  LD50: 231 mg/kg

## CCCCN(CCCC)CCCNc1n[nH]c2ccc(Cl)cc12 [(52), 3-(3-Di-n-butylaminopropylamino)-5-chloroindazole]
[1]
  inhibition in vivo at 100 mg/kg: 61%
In vivo
  LD50: 211 mg/kg

## CC(CCNc1n[nH]c2ccc(Cl)cc12)N(C)C (stereo not drawn) [(53), 3-(3-Dimethylaminobutylamino)-5-chloroindazole]
[1]
  inhibition in vivo at 100 mg/kg: 48%
In vivo
  LD50: 313 mg/kg

## CCN(CC)C(CCNc1n[nH]c2ccc(Cl)cc12)CC(C)C (stereo not drawn) [(54), 3-(3-Diethylamino-5-methylhexylamino)-5-chloroindazole]
[1]
  inhibition in vivo at 100 mg/kg: 46%
In vivo
  LD50: 251 mg/kg

## Clc1ccc2[nH]nc(NCCCN3CCCCC3)c2c1 [(55), 3-(3-Piperidinopropylamino)-5-chloroindazole]
[1]
  inhibition in vivo at 100 mg/kg: 47%
In vivo
  LD50: 133 mg/kg

## Clc1ccc2[nH]nc(NCCCCCCN3CCCCC3)c2c1 [(56), 3-(6-Piperidinohexylamino)-5-chloroindazole]
[1]
  inhibition in vivo at 100 mg/kg: 29%
In vivo
  LD50: 145 mg/kg

## CC(CCNc1n[nH]c2ccc(Cl)cc12)N1CCCCC1 (stereo not drawn) [(57), 3-(3-Piperidinobutylamino)-5-chloroindazole]
[1]
  inhibition in vivo at 100 mg/kg: 54%
In vivo
  LD50: 173 mg/kg

## CC(C)CC(CCNc1n[nH]c2ccc(Cl)cc12)N1CCCCC1 (stereo not drawn) [(58), 3-(3-Piperidino-5-methylhexylamino)-5-chloroindazole]
[1]
  inhibition in vivo at 100 mg/kg: 40%
In vivo
  LD50: 180 mg/kg

## CC1CCCCN1CCCNc1n[nH]c2ccc(Cl)cc12 (stereo not drawn) [(59), 3-[3-(2-Methylpiperidino)propylamino]-5-chloroindazole]
[1]
  inhibition in vivo at 100 mg/kg: 63%
In vivo
  LD50: 210 mg/kg

## CC1CCCC(C)N1CCCNc1n[nH]c2ccc(Cl)cc12 (stereo not drawn) [(60), 3-[3-(2,6-Dimethylpiperidino)propylamino]-5-chloroindazole]
[1]
  inhibition in vivo at 100 mg/kg: 36%
In vivo
  LD50: 310 mg/kg

## OC1CCN(CCCNc2n[nH]c3ccc(Cl)cc23)CC1 [(61), 3-[3-(4-Hydroxypiperidino)propylamino]-5-chloroindazole]
[1]
  inhibition in vivo at 100 mg/kg: 46%
In vivo
  LD50: 210 mg/kg

## Clc1ccc2[nH]nc(NCCCN3CCC(Cl)CC3)c2c1 [(62), 3-[3-(4-Chloropiperidino)propylamino]-5-chloroindazole]
[1]
  inhibition in vivo at 100 mg/kg: 65%
In vivo
  LD50: 312 mg/kg

## Clc1ccc2[nH]nc(NCCCN3CCCCCC3)c2c1 [(63), 3-(3-Homopiperidinopropylamino)-5-chloroindazole]
[1]
  inhibition in vivo at 100 mg/kg: 57%
In vivo
  LD50: 331 mg/kg

## CN1CCN(CCCNc2n[nH]c3ccc(Cl)cc23)CC1 [(64), 3-[3-(4-Methylpiperadino)propylamino]-5-chloroindazole]
[1]
  inhibition in vivo at 100 mg/kg: 29%
In vivo
  LD50: 229 mg/kg

## Clc1ccc2[nH]nc(NCCCN3CCCC3)c2c1 [(65), 3-(3-Pyrrolidinopropylamino)-5-chloroindazole]
[1]
  inhibition in vivo at 100 mg/kg: 36%
In vivo
  LD50: 136 mg/kg

## Clc1ccc2[nH]nc(NCCCN3CCOCC3)c2c1 [(66), 3-(3-Morpholinopropylamino)-5-chloroindazole]
[1]
  inhibition in vivo at 100 mg/kg: 46%
In vivo
  LD50: 246 mg/kg

## CCN(CC)CCCNc1n[nH]c2cccc(O)c12 [(67), 3-(3-Diethylaminopropylamino)-4-hydroxyindazole]
[1]
  inhibition in vivo at 100 mg/kg: 55%
In vivo
  LD50: 255 mg/kg

## CCN(CC)CCCNc1n[nH]c2ccc(O)cc12 [(68), 3-(3-Diethylaminopropylamino)-5-hydroxyindazole]
[1]
  inhibition in vivo at 100 mg/kg: 52%
In vivo
  LD50: 352 mg/kg

## CCN(CC)CCCNc1n[nH]c2cc(O)ccc12 [(69), 3-(3-Diethylaminopropylamino)-6-hydroxyindazole]
[1]
  inhibition in vivo at 100 mg/kg: 51%
In vivo
  LD50: 151 mg/kg

## CCN(CC)CCCNc1n[nH]c2c(O)cccc12 [(70), 3-(3-Diethylaminopropylamino)-7-hydroxyindazole]
[1]
  inhibition in vivo at 100 mg/kg: 56%
In vivo
  LD50: 156 mg/kg

## CCN(CC)CCCNc1n[nH]c2ccc(I)cc12 [(71), 3-(3-Diethylaminopropylamino)-5-iodoindazole]
[1]
  inhibition in vivo at 100 mg/kg: 56%
In vivo
  LD50: 256 mg/kg

## CCN(CC)CCCNc1n[nH]c2c(I)cccc12 [(72), 3-(3-Diethylaminopropylamino)-7-iodoindazole]
[1]
  inhibition in vivo at 100 mg/kg: 53%
In vivo
  LD50: 253 mg/kg

## CCN(CC)CCCNc1n[nH]c2c(N)cc(N)cc12 [(73), 3-(3-Diethylaminopropylamino)-5,7-diaminoindazole]
[1]
  inhibition in vivo at 100 mg/kg: 55%
In vivo
  LD50: 355 mg/kg

## CCCCN(CCCC)CCCNc1n[nH]c2ccc(O)cc12 [(74), 3-(3-Di-n-butylaminopropylamino)-5-hydroxyindazole]
[1]
  inhibition in vivo at 100 mg/kg: 53%
In vivo
  LD50: 253 mg/kg

## CC(CCNc1n[nH]c2ccc(O)cc12)N(C)C (stereo not drawn) [(75), 3-(3-Dimethylaminobutylamino)-5-hydroxyindazole]
[1]
  inhibition in vivo at 100 mg/kg: 34%
In vivo
  LD50: 234 mg/kg

## CCN(CC)C(CCNc1n[nH]c2ccc(O)cc12)CC(C)C (stereo not drawn) [(76), 3-(3-Diethylamino-5-methylhexylamino)-5-hydroxyindazole]
[1]
  inhibition in vivo at 100 mg/kg: 46%
In vivo
  LD50: 146 mg/kg

## Oc1ccc2[nH]nc(NCCCN3CCCCC3)c2c1 [(77), 3-(3-Piperidinopropylamino)-5-hydroxyindazole]
[1]
  inhibition in vivo at 100 mg/kg: 51%
In vivo
  LD50: 251 mg/kg

## Oc1ccc2[nH]nc(NCCCCCCN3CCCCC3)c2c1 [(78), 3-(6-Piperidinohexylamino)-5-hydroxyindazole]
[1]
  inhibition in vivo at 100 mg/kg: 25%
In vivo
  LD50: 225 mg/kg

## CC(CCNc1n[nH]c2ccc(O)cc12)N1CCCCC1 (stereo not drawn) [(79), 3-(3-Piperidinobutylamino)-5-hydroxyindazole]
[1]
  inhibition in vivo at 100 mg/kg: 46%
In vivo
  LD50: 146 mg/kg

## CC(C)CC(CCNc1n[nH]c2ccc(O)cc12)N1CCCCC1 (stereo not drawn) [(80), 3-(3-Piperidino-5-methylhexylamino)-5-hydroxyindazole]
[1]
  inhibition in vivo at 100 mg/kg: 32%
In vivo
  LD50: 332 mg/kg

## CC1CCCCN1CCCNc1n[nH]c2ccc(O)cc12 (stereo not drawn) [(81), 3-[3-(2-Methylpiperidino)propylamino]-5-hydroxyindazole]
[1]
  inhibition in vivo at 100 mg/kg: 47%
In vivo
  LD50: 147 mg/kg

## CC1CCCC(C)N1CCCNc1n[nH]c2ccc(O)cc12 (stereo not drawn) [(82), 3-[3-(2,6-Dimethylpiperidino)propylamino]-5-hydroxyindazole]
[1]
  inhibition in vivo at 100 mg/kg: 30%
In vivo
  LD50: 230 mg/kg

## Oc1ccc2[nH]nc(NCCCN3CCC(O)CC3)c2c1 [(83), 3-[3-(4-Hydroxypiperidino)propylamino]-5-hydroxyindazole]
[1]
  inhibition in vivo at 100 mg/kg: 34%
In vivo
  LD50: 134 mg/kg

## Oc1ccc2[nH]nc(NCCCN3CCC(Cl)CC3)c2c1 [(84), 3-[3-(4-Chloropiperidino)propylamino]-5-hydroxyindazole]
[1]
  inhibition in vivo at 100 mg/kg: 63%
In vivo
  LD50: 163 mg/kg

## Oc1ccc2[nH]nc(NCCCN3CCCCCC3)c2c1 [(85), 3-(3-Homopiperidinopropylamino)-5-hydroxyindazole]
[1]
  inhibition in vivo at 100 mg/kg: 35%
In vivo
  LD50: 135 mg/kg

## CN1CCN(CCCNc2n[nH]c3ccc(O)cc23)CC1 [(86), 3-[3-(4-Methylpiperadino)propylamino]-5-hydroxyindazole]
[1]
  inhibition in vivo at 100 mg/kg: 23%
In vivo
  LD50: 123 mg/kg

## Oc1ccc2[nH]nc(NCCCN3CCCC3)c2c1 [(87), 3-(3-Pyrrolidinopropylamino)-5-hydroxyindazole]
[1]
  inhibition in vivo at 100 mg/kg: 38%
In vivo
  LD50: 238 mg/kg

## Oc1ccc2[nH]nc(NCCCN3CCOCC3)c2c1 [(88), 3-(3-Morpholinopropylamino)-5-hydroxyindazole]
[1]
  inhibition in vivo at 100 mg/kg: 46%
In vivo
  LD50: 346 mg/kg

## CCN(CC)CCCNc1nn(CCCN(CC)CC)c2cccc(Cl)c12 [(89), 1-(3-Diethylaminopropyl)-3-(3-diethylaminopropylamino)-4-chloroindazole]
[1]
  inhibition in vivo at 100 mg/kg: 30%
In vivo
  LD50: 214 mg/kg

## CCN(CC)CCCNc1nn(CCCN(CC)CC)c2ccc(Cl)cc12 [(90), 1-(3-Diethylaminopropyl)-3-(3-diethylaminopropylamino)-5-chloroindazole]
[1]
  inhibition in vivo at 100 mg/kg: 29%
In vivo
  LD50: 223 mg/kg

## CCN(CC)CCCNc1nn(CCCN(CC)CC)c2cc(Cl)ccc12 [(91), 1-(3-Diethylaminopropyl)-3-(6-diethylaminopropylamino)-6-chloroindazole]
[1]
  inhibition in vivo at 100 mg/kg: 22%
In vivo
  LD50: 251 mg/kg

## CCN(CC)CCCNc1nn(CCCN(CC)CC)c2c(Cl)cccc12 [(92), 1-(3-Diethylaminopropyl)-3-(3-diethylaminopropylamino)-7-chloroindazole]
[1]
  inhibition in vivo at 100 mg/kg: 32%
In vivo
  LD50: 211 mg/kg

## CCN(CC)CCCNc1nn(CCCN(CC)CC)c2ccc(N)cc12 [(93), 1-(3-Diethylaminopropyl)-3-(3-diethylaminopropylamino)-5-aminoindazole]
[1]
  inhibition in vivo at 100 mg/kg: 28%
In vivo
  LD50: 191 mg/kg

## CCN(CC)CCCNc1nn(CCCN(CC)CC)c2ccc(OC)cc12 [(94), 1-(3-Diethylaminopropyl)-3-(3-diethylaminopropylamino)-5-methoxyindazole]
[1]
  inhibition in vivo at 100 mg/kg: 30%
In vivo
  LD50: 301 mg/kg

## CCN(CC)CCCNc1nn(CCCN(CC)CC)c2ccc(C)cc12 [(95), 1-(3-Diethylaminopropyl)-3-(3-diethylaminopropylamino)-5-methylindazole]
[1]
  inhibition in vivo at 100 mg/kg: 29%
In vivo
  LD50: 211 mg/kg
